# Test results taken from US10392371B2, “Compounds useful as modulators of TRPM8” (Senomyx, Inc., priority 2015, dated 2019).
# Experiments:
# [1] = Cool Line Scale Test (sensory study, cooling intensity vs 45 μM WS-3); type: in vivo, human; settings: for lingering effect: sensory study; for Sensory Results (cooling intensity relative to 45 μM WS-3): 5 μM compound vs 45 μM WS-3, Low Sodium Buffer pH ~7.1, 0.1% ethanol, 15 point line scale
# Procedure: A typical sensory study is described below followed by Table 5 summarizing sensory results of Compounds 101-105.
# All samples made with Low Sodium Buffer (LSB) pH ˜7.1 and contain 0.1% ethanol.
# Compounds are rated on a 15 point line scale where 45 μM WS-3 (N-Ethyl-p-menthane-3-carboxamide) is ranked as a 5 in cool intensity. In most cases, the compounds are tested to determine at what concentration the cooling intensity is equivalent to 45 μM WS-3. In each test, the panelist is presented with a 0 μM control sample, a 45 μM WS-3 control sample and the experimental compound sample and asked to rate the cooling intensity of each sample.
# [2] = Sensory evaluation by quantitative descriptive evaluation technique (ten trained panelists, 15-point linescale); type: in vivo, human
# Procedure: Compounds 102-105 and Comparative Compound 1 were evaluated using a quantitative descriptive evaluation technique. Ten panelists participated in the study. These panelists previously underwent extensive training in the use of standardized vocabulary to describe the appearance, aroma, flavor, and texture of a variety of products. Data collection was conducted over a period of seven days, with panelists evaluating two samples on each day of testing. Two evaluations were obtained from each panelist for each compound yielding a total of 20 evaluations per compound. During the data collection, the panelists were give a list of attributes and instructed to indicate the intensity of each attribute by indicating the intensity on a 15-point linescale. The intensity was evaluated for the following time periods: in-mouth, after expectoration, and 30 seconds, 1, 2, 5, 10, 15, 30, 45, and 60 minutes into the aftertaste period.
# Compounds 102, 103, and 105 were prepared as 5 μM solutions and Compound 104 and Comparative Compound 1 were prepared in 3 μM solutions. 15 mL aliqouts of the test solutions were administered to Panelists in 1 oz. plastic cups coded with a random 3-digit code. The Panelists refrained from brushing their teeth, eating, and drinking one hour before each evaluation. Mean intensities were calculated based on the Panelists responses for each sensory characteristic. The sensory characteristics evaluated were bitter, icy cool in mouth, numbing, cooling breathe in, total burning, alcohol burning, pepperine/capsaicin, tingling, and total trigeminal impact. For each sensory characteristic, the scale of the intensity was designed to cover a range encompassing the universe of products having the indicated sensory characteristic.
# After mean intensities for each attribute were calculated, statistical significance for each mean intensity was calculated using analysis of variance (ANOVA) followed by Duncan's multiple comparison test at an alpha level of 5%. […] In the results provided herein, the Duncan's levels are reported as Levels A, B, and C.
# Panelists were asked to assess the intensity of both capsaicin-like burning and Alcohol-like Burning sensations for Compounds 102 and 103 and Comparative Compound 1. Capsaicin-like burning is the sensation of warming or burning in the mouth, reminiscent of black pepper or hot sauce while alcohol-like burning is the sensation of warming or burning in the mouth, reminiscent of an alcohol burn. The combination of the intensity of these sensations was used to assess the total burning for the tested compounds. The average total burning after expectoration to 60 minutes was lower for both 5 μM Compound 102 and 5 μM Compound 103 as compared to 3 μM Comparative Compound 1.
# The total intensity of trigeminal nerve feeling factors on the soft tissues of the mouth, including numbing, cooling (without breathing in), irritation, warming, burning, and tingling were determined for Compounds 102 and 103 and Comparative Compound 1. The average total trigeminal impact after expectoration to 60 minutes was lower for both 5 μM Compound 102 and 5 μM Compound 103 as compared to 3 μM Comparative Compound 1.
# Icy cool in mouth is the sensation of coolness of the mouth, perceived with the mouth closed, not related to the temperature of the sample. Panelists were asked to assess the sensation of icy cool in mouth for Compound 104 and Compound 105 from the time immediately after expectoration of the sample through 60 minutes after expectoration. The average Icy Cool after expectoration to 60 minutes was higher for both 5 μM Compound 105 and 3 μM Compound 104 as compared to 3 μM Comparative Compound 1.
# Cooling Breath In is the sensation of coolness of the mouth, when inhaling through the mouth, not related to the temperature of the sample. […]
# hTRPM8 = target: T1, hTRPM8 (Homo sapiens, UniProt Q7Z2W7); experiment: hTRPM8 agonist assay in mammalian cell line stably expressing hTRPM8; type: cell-based; settings: EC50 of compound compared to that of WS-3, reported as a ratio
# T1 construct: expressed in transfected cells
# T1 sequence (Q7Z2W7 whole entry): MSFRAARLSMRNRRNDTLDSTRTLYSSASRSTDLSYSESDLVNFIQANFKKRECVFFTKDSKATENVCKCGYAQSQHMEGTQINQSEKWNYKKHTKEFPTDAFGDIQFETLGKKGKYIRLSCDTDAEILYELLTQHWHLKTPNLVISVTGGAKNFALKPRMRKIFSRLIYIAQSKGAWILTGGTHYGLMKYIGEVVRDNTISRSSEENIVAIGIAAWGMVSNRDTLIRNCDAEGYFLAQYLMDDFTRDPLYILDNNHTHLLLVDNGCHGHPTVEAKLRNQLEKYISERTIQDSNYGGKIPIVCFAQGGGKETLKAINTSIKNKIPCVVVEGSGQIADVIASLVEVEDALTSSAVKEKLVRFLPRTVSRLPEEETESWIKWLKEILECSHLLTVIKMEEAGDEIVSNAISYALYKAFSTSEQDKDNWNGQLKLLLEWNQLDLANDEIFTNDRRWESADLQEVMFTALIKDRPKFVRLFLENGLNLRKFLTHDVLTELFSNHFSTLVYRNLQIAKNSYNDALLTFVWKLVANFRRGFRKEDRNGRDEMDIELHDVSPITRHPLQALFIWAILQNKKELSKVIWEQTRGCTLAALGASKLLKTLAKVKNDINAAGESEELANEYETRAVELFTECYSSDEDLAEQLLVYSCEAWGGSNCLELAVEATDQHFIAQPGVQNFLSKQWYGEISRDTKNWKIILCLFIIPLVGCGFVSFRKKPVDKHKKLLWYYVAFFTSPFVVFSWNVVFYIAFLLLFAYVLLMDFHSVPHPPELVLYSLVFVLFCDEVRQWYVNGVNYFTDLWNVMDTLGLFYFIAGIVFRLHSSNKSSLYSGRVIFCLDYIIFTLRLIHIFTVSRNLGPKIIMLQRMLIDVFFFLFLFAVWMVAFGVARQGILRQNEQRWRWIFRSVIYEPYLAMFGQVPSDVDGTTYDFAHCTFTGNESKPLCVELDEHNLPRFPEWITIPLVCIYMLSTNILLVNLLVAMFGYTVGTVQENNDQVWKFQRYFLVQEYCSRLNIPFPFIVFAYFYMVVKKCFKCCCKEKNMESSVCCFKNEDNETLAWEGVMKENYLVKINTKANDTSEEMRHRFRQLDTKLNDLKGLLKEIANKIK
# Procedure: A mammalian cell line derivative which stably expresses hTRPM8 was used in biological assays in association with testing the present compounds with cool-tasting or -feeling properties (Servant et al. US 2007/0259354 A1 and references cited therein). Typical compound concentrations tested were 100 μM, 30 μM, 10 μM, 3.3 μM, 1.1 μM, 0.37 μM, 0.12 μM, 0.04 μM, 0.01 μM and more dilutions for very potent compounds. The present compounds have shown strong activity as agonists of hTRPM8. […] For the sake of comparison, the EC50 of Comparative Compound 1, which was previously disclosed in U.S. 2013/0324557 A1 and has the structure
Compound,lingering effect [1],Average Bitterness at 2 Minutes After Expectoration (Bitterness Rating) ([2]; 5 μM solution),EC50 WS-3 Ratio (hTRPM8),Average Cooling Breath In (after expectoration to 60 minutes) ([2]; 3 μM solution),Average Icy Cool In Mouth (after expectoration to 60 minutes) ([2]; 3 μM solution),Average Icy Cool In Mouth and Immediately After Expectoration ([2]; 3 μM solution),Average Bitterness at 2 Minutes After Expectoration (Bitterness Rating) ([2]; 3 μM solution),Average Numbing (after expectoration to 60 minutes) ([2]; 5 μM solution),Average Tingling (after expectoration to 60 minutes) ([2]; 5 μM solution),Average Total Burning (after expectoration to 60 minutes) ([2]; 5 μM solution),Average Total Trigeminal Impact (after expectoration to 60 minutes) ([2]; 5 μM solution),Sensory Results (cooling intensity relative to 45 μM WS-3) [1],other results
"Cc1ccc(OCC(=O)N(Cc2cccs2)c2cc[nH]n2)cc1C [Compound 105, 2-(3,4-dimethylphenoxy)-N-(1H-pyrazol-3-yl)-N-(thiophen-2-ylmethyl)acetamide]",unexpected lingering effect,0.82,12169.3,–,–,–,–,–,–,–,–,–,Average Cooling Breath In (after expectoration to 60 minutes) ([2]; 5 μM solution): 2.7; Average Icy Cool In Mouth (after expectoration to 60 minutes) ([2]; 5 μM solution): 2.3; Average Icy Cool In Mouth and Immediately After Expectoration ([2]; 5 μM solution): 1.9
"Cc1ccc(OCC(=O)N(Cc2cccs2)c2ccn[nH]2)cc1 [Comparative Compound 1, reference compound]",–,–,28648,2.5,2.1,1.8,1.10,–,–,–,–,–,Average Numbing (after expectoration to 60 minutes) ([2]; 3 μM solution): 1.5; Average Tingling (after expectoration to 60 minutes) ([2]; 3 μM solution): 0.7; Average Total Burning (after expectoration to 60 minutes) ([2]; 3 μM solution): 1.1; Average Total Trigeminal Impact (after expectoration to 60 minutes) ([2]; 3 μM solution): 2.8
"O=C(COc1ccc(F)cc1)N(Cc1cccs1)c1cc[nH]n1 [Compound 102, 2-(4-flourophenoxy)-N-(1H-pyrazol-5-yl)-N-(thiophen-2-ylmethyl)acetamide]",–,0.86,495.4,–,–,–,–,1.4,0.6,0.9,2.4,–,–
"COc1ccc(OCC(=O)N(Cc2cccs2)c2cc[nH]n2)cc1 [Compound 103, 2-(4-methoxyphenoxy)-N-(1H-pyrazol-3-yl)-N-(thiophen-2-ylmethyl)acetamide]",unexpected lingering effect,0.90,1050.9,–,–,–,–,1.3,0.6,0.9,2.3,equivalent to the cooling,–
"CCc1ccc(OCC(=O)N(Cc2cccs2)c2cc[nH]n2)cc1 [Compound 104, 2-(4-ethylphenoxy)-N-(1H-pyrazol-3-yl)-N-(thiophen-2-ylmethyl)acetamide]",unexpected lingering effect,–,1189444,2.7,2.3,2.0,0.77,–,–,–,–,significantly more cooling,–
"Cc1cccc(OCC(=O)N(Cc2cccs2)c2cc[nH]n2)c1 [Compound 101, N-(1H-pyrazol-3-yl)-N-(thiophen-2-ylmethyl)-2-(m-tolyloxy)acetamide]",–,–,696.3,–,–,–,–,–,–,–,–,–,–
